Assay results published in EP3634580B1, “COMPOSITIONS COMPRISING LACTULOSE FOR MAINTAINING OR IMPROVING GUT HEALTH IN HUMANS” (Fresenius Kabi Austria GmbH, priority 2017, dated 2018).

Tested on: colon microbiota of human origin
Test: TIM-2 in vitro model of the proximal colon: short-chain fatty acids (SCFA) production
Assay type: cell-based
Conditions: for Cumulative production of butyrate / Cumulative production of total short chain fatty acids (SCFA): mean of n = 2
Method: Crystalline lactulose was administered daily for 5 days to the TNO Intestinal Model (TIM-2), an in vitro model of the proximal colon. NaOH consumption, short-chain fatty acids (SCFA) production, ammonia production as well as relative abundance of microbiota were analyzed.
The substance administered in this study was lactulose crystals (S.C.M. Società Chimica Mugello S.r.l., Vicchio, Italy). Experiments without the addition of lactulose served as negative control.
The TNO Intestinal Model (TIM-2) is a dynamic in vitro model of the proximal colon. The TIM-2 system was inoculated with a highly metabolically active colon microbiota of human origin. In the system the following standardized conditions were simulated: body temperature; pH in the lumen of the proximal colon (pH 5.8); delivery of a substrate from the 'ileum' (SIEM; Standardized Ileum Efflux Medium); mixing and transport of the intestinal contents; anaerobiosis; absorption of water and absorption of fermentation products, metabolites and other low molecular weight compounds (via a semipermeable membrane inside the colon model).
SIEM simulates material passing the ileocecal valve in humans. It contained the major non-digestible carbohydrates (pectin, xylan, arabinogalactan, amylopectin, starch) found in a normal western diet as well as protein (bactopepton, casein), ox-bile, Tween 80 as well as vitamins and minerals. SIEM was added to the system at a speed of 2.5 mL/h and the speed of the dialysis liquid was 1.5 mL/min. During the experiment, the intestinal contents were mixed continuously by the peristaltic movements of the TIM-2 system. In order to simulate the transit of the chime from proximal to distal colon, 25 mL of the lumen was removed every 24 h and discarded.
Before performing each experiment, the system was inoculated with a standardized microbiota of human origin. This standardized microbiota was prepared using fecal donations from a group of 4 healthy volunteers (3 females, 1 male, age 38.8 ± 3.9 years; BMI (body mass index) 24.2 ± 1.5 kg/m^2). Individuals provided signed informed consent before participation, were non-smokers and had not used antibiotics, prebiotics, probiotics or laxatives within 1 month before the stool donation.
At the start of the adaptation period the microbiota was allowed to adapt to the model conditions and SIEM for 16 h. After the adaptation period the 120 h test period started in which lactulose was added to TIM-2 once daily.
Lactulose was added to the system at daily doses of 2 g, 3 g, 4 g, and 5 g lactulose. Each dose as well as the control experiment was studied in duplicate (n = 2). The test period of the TIM-2 experiments lasted 120 h (5 consecutive days).
Metabolites like the short-chain fatty acids (SCFA) and ammonia produced in TIM-2 were continuously removed from the lumen by a semipermeable membrane unit. This dialysate was collected at the start of the test period and after 24, 48, 72, 96, and 120 h.
The lumen and dialysate fractions of TIM-2 were analyzed using gas chromatography for SCFA (acetate, propionate and butyrate). Dialysate samples were directly used. Lumen samples were centrifuged (12,000 rpm at 4 °C for 10 min).

[1] = daily doses of 2 g, 3 g, 4 g, 5 g, 120 h test period, versus control
[2] = lactulose 2 g daily, 0 h (values at the start set to zero), control 0
[3] = lactulose 3 g daily, 0 h (values at the start set to zero), control 0
[4] = lactulose 4 g daily, 0 h (values at the start set to zero), control 0
[5] = lactulose 5 g daily, 0 h (values at the start set to zero), control 0

OC[C@H]1O[C@@H](O[C@@H]2[C@@H](CO)OC(O)(CO)[C@H]2O)[C@H](O)[C@@H](O)[C@H]1O (mixture of isomers) [Lactulose, lactulose]
SCFA production (in words) [1]: increased the levels
levels of butyrate (in words) [1]: increased the levels
SCFA production (in words) (daily doses of 2 g, 3 g, 4 g, 5 g, 120 h test period, versus control, listed as lactulose): higher SCFA production as compared to the control
Cumulative production of butyrate [2]: 0 mmol
Cumulative production of total short chain fatty acids (SCFA) [2]: 0 mmol
Cumulative production of butyrate (lactulose 2 g daily, 24 h, control 7): 14 mmol
Cumulative production of total short chain fatty acids (SCFA) (lactulose 2 g daily, 24 h, control 62): 85 mmol
Cumulative production of butyrate (lactulose 2 g daily, 48 h, control 18): 27 mmol
Cumulative production of total short chain fatty acids (SCFA) (lactulose 2 g daily, 48 h, control 129): 163 mmol
Cumulative production of butyrate (lactulose 2 g daily, 72 h, control 31): 39 mmol
Cumulative production of total short chain fatty acids (SCFA) (lactulose 2 g daily, 72 h, control 194): 234 mmol
Cumulative production of butyrate (lactulose 2 g daily, 96 h, control 44): 52 mmol
Cumulative production of total short chain fatty acids (SCFA) (lactulose 2 g daily, 96 h, control 257): 318 mmol
Cumulative production of butyrate (lactulose 2 g daily, 120 h, control 58): 69 mmol
Cumulative production of total short chain fatty acids (SCFA) (lactulose 2 g daily, 120 h, control 320): 403 mmol
Cumulative production of butyrate [3]: 0 mmol
Cumulative production of total short chain fatty acids (SCFA) [3]: 0 mmol
Cumulative production of butyrate (lactulose 3 g daily, 24 h, control 7): 12 mmol
Cumulative production of total short chain fatty acids (SCFA) (lactulose 3 g daily, 24 h, control 62): 85 mmol
Cumulative production of butyrate (lactulose 3 g daily, 48 h, control 18): 27 mmol
Cumulative production of total short chain fatty acids (SCFA) (lactulose 3 g daily, 48 h, control 129): 175 mmol
Cumulative production of butyrate (lactulose 3 g daily, 72 h, control 31): 40 mmol
Cumulative production of total short chain fatty acids (SCFA) (lactulose 3 g daily, 72 h, control 194): 256 mmol
Cumulative production of butyrate (lactulose 3 g daily, 96 h, control 44): 54 mmol
Cumulative production of total short chain fatty acids (SCFA) (lactulose 3 g daily, 96 h, control 257): 340 mmol
Cumulative production of butyrate (lactulose 3 g daily, 120 h, control 58): 68 mmol
Cumulative production of total short chain fatty acids (SCFA) (lactulose 3 g daily, 120 h, control 320): 427 mmol
Cumulative production of butyrate [4]: 0 mmol
Cumulative production of total short chain fatty acids (SCFA) [4]: 0 mmol
Cumulative production of butyrate (lactulose 4 g daily, 24 h, control 7): 12 mmol
Cumulative production of total short chain fatty acids (SCFA) (lactulose 4 g daily, 24 h, control 62): 97 mmol
Cumulative production of butyrate (lactulose 4 g daily, 48 h, control 18): 30 mmol
Cumulative production of total short chain fatty acids (SCFA) (lactulose 4 g daily, 48 h, control 129): 216 mmol
Cumulative production of butyrate (lactulose 4 g daily, 72 h, control 31): 47 mmol
Cumulative production of total short chain fatty acids (SCFA) (lactulose 4 g daily, 72 h, control 194): 310 mmol
Cumulative production of butyrate (lactulose 4 g daily, 96 h, control 44): 70 mmol
Cumulative production of total short chain fatty acids (SCFA) (lactulose 4 g daily, 96 h, control 257): 405 mmol
Cumulative production of butyrate (lactulose 4 g daily, 120 h, control 58): 93 mmol
Cumulative production of total short chain fatty acids (SCFA) (lactulose 4 g daily, 120 h, control 320): 500 mmol
Cumulative production of butyrate [5]: 0 mmol
Cumulative production of total short chain fatty acids (SCFA) [5]: 0 mmol
Cumulative production of butyrate (lactulose 5 g daily, 24 h, control 7): 8 mmol
Cumulative production of total short chain fatty acids (SCFA) (lactulose 5 g daily, 24 h, control 62): 84 mmol
Cumulative production of butyrate (lactulose 5 g daily, 48 h, control 18): 29 mmol
Cumulative production of total short chain fatty acids (SCFA) (lactulose 5 g daily, 48 h, control 129): 214 mmol
Cumulative production of butyrate (lactulose 5 g daily, 72 h, control 31): 53 mmol
Cumulative production of total short chain fatty acids (SCFA) (lactulose 5 g daily, 72 h, control 194): 309 mmol
Cumulative production of butyrate (lactulose 5 g daily, 96 h, control 44): 84 mmol
Cumulative production of total short chain fatty acids (SCFA) (lactulose 5 g daily, 96 h, control 257): 430 mmol
Cumulative production of butyrate (lactulose 5 g daily, 120 h, control 58): 118 mmol
Cumulative production of total short chain fatty acids (SCFA) (lactulose 5 g daily, 120 h, control 320): 520 mmol
